From ChEMBL document CHEMBL3046894, “Synthesis and Herbicidal Activity of Pyrimidinyl Salicylic and Thiosalicylic Acids” (J Pestic Sci, 1996)
Calls of active or inactive are those of the source. The calls are words filed in the database; no cut-off is given here.

Columns and labels:
Assay type in all cases: functional, organism-based
Chenopodium album [1] = experiment: Pre-emergence herbicidal activity against Chenopodium album assessed as growth inhibition at 25 g a.i/10 a
Persicaria nodosa [2] = experiment: Pre-emergence herbicidal activity against Persicaria nodosa assessed as growth inhibition at 25 g a.i/10 a
Amaranthus retroflexus [3] = experiment: Post-emergence herbicidal activity against Amaranthus retroflexus assessed as growth inhibition at 25 g a.i/10 a applied 11 days after germination as foliar spray
Persicaria nodosa [4] = experiment: Post-emergence herbicidal activity against Persicaria nodosa assessed as growth inhibition at 25 g a.i/10 a applied 11 days after germination as foliar spray
Digitaria sanguinalis [5] = experiment: Pre-emergence herbicidal activity against Digitaria sanguinalis (hairy crabgrass) assessed as growth inhibition at 25 g a.i/10 a
Digitaria sanguinalis [6] = experiment: Post-emergence herbicidal activity against Digitaria sanguinalis (hairy crabgrass) assessed as growth inhibition at 25 g a.i/10 a applied 11 days after germination as foliar spray
Cyperus iria [7] = experiment: Post-emergence herbicidal activity against Cyperus iria assessed as growth inhibition at 25 g a.i/10 a applied 11 days after germination as foliar spray
Cyperus iria [8] = experiment: Pre-emergence herbicidal activity against Cyperus iria assessed as growth inhibition at 25 g a.i/10 a
Amaranthus retroflexus [9] = experiment: Pre-emergence herbicidal activity against Amaranthus retroflexus assessed as growth inhibition at 25 g a.i/10 a
Echinochloa crus-galli [10] = experiment: Post-emergence herbicidal activity against Echinochloa crus-galli (barnyard grass) assessed as growth inhibition at 25 g a.i/10 a applied 11 days after germination as foliar spray
Echinochloa crus-galli [11] = experiment: Pre-emergence herbicidal activity against Echinochloa crus-galli (barnyard grass) assessed as growth inhibition at 25 g a.i/10 a
Chenopodium album [12] = experiment: Post-emergence herbicidal activity against Chenopodium album assessed as growth inhibition at 25 g a.i/10 a applied 11 days after germination as foliar spray

## COc1cc(OC)nc(Oc2ccc(-n3cccc3)cc2C(=O)O)n1
Chenopodium album [1]
  growth inhibition (GI): inactive
Persicaria nodosa [2]
  growth inhibition (GI): inactive
Amaranthus retroflexus [3]
  growth inhibition (GI): Active
Persicaria nodosa [4]
  growth inhibition (GI): Active
Digitaria sanguinalis [5]
  growth inhibition (GI): inactive
Digitaria sanguinalis [6]
  growth inhibition (GI): Active
Cyperus iria [7]
  growth inhibition (GI): Active
Cyperus iria [8]
  growth inhibition (GI): inactive
Amaranthus retroflexus [9]
  growth inhibition (GI): inactive
Echinochloa crus-galli [10]
  growth inhibition (GI): Active
Echinochloa crus-galli [11]
  growth inhibition (GI): inactive
Chenopodium album [12]
  growth inhibition (GI): inactive

## COc1cc(OC)nc(Oc2ccc(OC(C)C)cc2C(=O)O)n1
Chenopodium album [1]
  growth inhibition (GI): inactive
Persicaria nodosa [2]
  growth inhibition (GI): inactive
Amaranthus retroflexus [3]
  growth inhibition (GI): inactive
Persicaria nodosa [4]
  growth inhibition (GI): Active
Digitaria sanguinalis [5]
  growth inhibition (GI): inactive
Digitaria sanguinalis [6]
  growth inhibition (GI): inactive
Cyperus iria [7]
  growth inhibition (GI): Active
Cyperus iria [8]
  growth inhibition (GI): inactive
Amaranthus retroflexus [9]
  growth inhibition (GI): inactive
Echinochloa crus-galli [10]
  growth inhibition (GI): Active
Echinochloa crus-galli [11]
  growth inhibition (GI): inactive
Chenopodium album [12]
  growth inhibition (GI): inactive

## COc1cc(OC)nc(Oc2ccc(Br)cc2C(=O)O)n1
Chenopodium album [1]
  growth inhibition (GI): inactive
Persicaria nodosa [2]
  growth inhibition (GI): inactive
Amaranthus retroflexus [3]
  growth inhibition (GI): inactive
Persicaria nodosa [4]
  growth inhibition (GI): inactive
Digitaria sanguinalis [5]
  growth inhibition (GI): inactive
Digitaria sanguinalis [6]
  growth inhibition (GI): inactive
Cyperus iria [7]
  growth inhibition (GI): inactive
Cyperus iria [8]
  growth inhibition (GI): inactive
Amaranthus retroflexus [9]
  growth inhibition (GI): inactive
Echinochloa crus-galli [10]
  growth inhibition (GI): inactive
Echinochloa crus-galli [11]
  growth inhibition (GI): inactive
Chenopodium album [12]
  growth inhibition (GI): inactive

## COc1cc(OC)nc(Oc2cccc(C(=O)c3ccccc3)c2C(=O)O)n1
Chenopodium album [1]
  growth inhibition (GI): Active
Persicaria nodosa [2]
  growth inhibition (GI): inactive
Amaranthus retroflexus [3]
  growth inhibition (GI): Active
Persicaria nodosa [4]
  growth inhibition (GI): Active
Digitaria sanguinalis [5]
  growth inhibition (GI): inactive
Digitaria sanguinalis [6]
  growth inhibition (GI): inactive
Cyperus iria [7]
  growth inhibition (GI): Active
Cyperus iria [8]
  growth inhibition (GI): Active
Amaranthus retroflexus [9]
  growth inhibition (GI): Active
Echinochloa crus-galli [10]
  growth inhibition (GI): inactive
Echinochloa crus-galli [11]
  growth inhibition (GI): inactive
Chenopodium album [12]
  growth inhibition (GI): Active

## COc1cc(OC)nc(Oc2cccc(OC(C)C)c2C(=O)O)n1
Chenopodium album [1]
  growth inhibition (GI): Active
Persicaria nodosa [2]
  growth inhibition (GI): Active
Amaranthus retroflexus [3]
  growth inhibition (GI): Active
Persicaria nodosa [4]
  growth inhibition (GI): Active
Digitaria sanguinalis [5]
  growth inhibition (GI): Active
Digitaria sanguinalis [6]
  growth inhibition (GI): Active
Cyperus iria [7]
  growth inhibition (GI): Active
Cyperus iria [8]
  growth inhibition (GI): Active
Amaranthus retroflexus [9]
  growth inhibition (GI): Active
Echinochloa crus-galli [10]
  growth inhibition (GI): Active
Echinochloa crus-galli [11]
  growth inhibition (GI): Active
Chenopodium album [12]
  growth inhibition (GI): Active

## COc1cc(OC)nc(Oc2ccc(C(F)(F)F)cc2C(=O)O)n1
Chenopodium album [1]
  growth inhibition (GI): inactive
Persicaria nodosa [2]
  growth inhibition (GI): inactive
Amaranthus retroflexus [3]
  growth inhibition (GI): Active
Persicaria nodosa [4]
  growth inhibition (GI): inactive
Digitaria sanguinalis [5]
  growth inhibition (GI): inactive
Digitaria sanguinalis [6]
  growth inhibition (GI): inactive
Cyperus iria [7]
  growth inhibition (GI): inactive
Cyperus iria [8]
  growth inhibition (GI): inactive
Amaranthus retroflexus [9]
  growth inhibition (GI): inactive
Echinochloa crus-galli [10]
  growth inhibition (GI): inactive
Echinochloa crus-galli [11]
  growth inhibition (GI): inactive
Chenopodium album [12]
  growth inhibition (GI): inactive

## COc1cc(OC)nc(Oc2cccc(C(C)=O)c2C(=O)O)n1
Chenopodium album [1]
  growth inhibition (GI): Active
Persicaria nodosa [2]
  growth inhibition (GI): Active
Amaranthus retroflexus [3]
  growth inhibition (GI): Active
Persicaria nodosa [4]
  growth inhibition (GI): Active
Digitaria sanguinalis [5]
  growth inhibition (GI): Active
Digitaria sanguinalis [6]
  growth inhibition (GI): Active
Cyperus iria [7]
  growth inhibition (GI): Active
Cyperus iria [8]
  growth inhibition (GI): Active
Amaranthus retroflexus [9]
  growth inhibition (GI): Active
Echinochloa crus-galli [10]
  growth inhibition (GI): Active
Echinochloa crus-galli [11]
  growth inhibition (GI): Active
Chenopodium album [12]
  growth inhibition (GI): Active

## CCCSc1cccc(Oc2nc(OC)cc(OC)n2)c1C(=O)O
Chenopodium album [1]
  growth inhibition (GI): inactive
Persicaria nodosa [2]
  growth inhibition (GI): inactive
Amaranthus retroflexus [3]
  growth inhibition (GI): Active
Persicaria nodosa [4]
  growth inhibition (GI): Active
Digitaria sanguinalis [5]
  growth inhibition (GI): inactive
Digitaria sanguinalis [6]
  growth inhibition (GI): inactive
Cyperus iria [7]
  growth inhibition (GI): inactive
Cyperus iria [8]
  growth inhibition (GI): inactive
Amaranthus retroflexus [9]
  growth inhibition (GI): inactive
Echinochloa crus-galli [10]
  growth inhibition (GI): inactive
Echinochloa crus-galli [11]
  growth inhibition (GI): inactive
Chenopodium album [12]
  growth inhibition (GI): inactive

## COc1cc(OC)nc(Oc2c(F)cccc2C(=O)O)n1
Chenopodium album [1]
  growth inhibition (GI): Active
Persicaria nodosa [2]
  growth inhibition (GI): Active
Amaranthus retroflexus [3]
  growth inhibition (GI): Active
Persicaria nodosa [4]
  growth inhibition (GI): Active
Digitaria sanguinalis [5]
  growth inhibition (GI): Active
Digitaria sanguinalis [6]
  growth inhibition (GI): inactive
Cyperus iria [7]
  growth inhibition (GI): Active
Cyperus iria [8]
  growth inhibition (GI): Active
Amaranthus retroflexus [9]
  growth inhibition (GI): Active
Echinochloa crus-galli [10]
  growth inhibition (GI): Active
Echinochloa crus-galli [11]
  growth inhibition (GI): Active
Chenopodium album [12]
  growth inhibition (GI): Active
